Data reported in PMC12587545, “Noncytotoxic polymyxin derivatives enhance antibiotic action against multidrug-resistant Gram-negative bacteria” (Antimicrobial Agents and Chemotherapy, 2025).
“Also recorded” adds a separate entry of the source. Read-outs that look alike come from different tables or passages of the source.

Columns and labels:
K. pneumoniae = assay: Checkerboard assay (antibiotic potentiation); type: cell-based, Klebsiella pneumoniae; settings: for MICantibiotic + compound: antibiotic MIC with 8 µg/mL (5 µM) compound 1; for MICantibiotic: antibiotic alone; for Potentiation: of antibiotic by 8 µg/mL (5 µM) compound 1
E. coli = assay: Checkerboard assay (antibiotic potentiation); type: cell-based, Escherichia coli; settings: for Interpretation: antibiotic + compound 1; for MICantibiotic + compound: antibiotic MIC with 8 µg/mL (5 µM) compound 1; for MICantibiotic: antibiotic alone; for Potentiation: of antibiotic by 8 µg/mL (5 µM) compound 1
E. cloacae = assay: Checkerboard assay (antibiotic potentiation); type: cell-based, Enterobacter cloacae; settings: E. cloacae 121887 (colistin-resistant)
A. baumannii AB027 = assay: Time-kill kinetics assay
Description: Bactericidal and bacteriostatic activity correspond to a ≥ 3 log10 and a < 3 log10 decrease in bacterial load after 24 h relative to the starting inoculum, respectively ([39]).
The time- and concentration-dependent killing of the antibiotic/compound combinations was assessed using the time-kill kinetics assay by following a previously described protocol ([27][–][29]). Bacterial culture grown overnight was diluted in phosphate-buffered saline (PBS) to 0.5 McFarland turbidity and was further diluted 1:50 in LB. Bacterial cultures treated with varying concentrations of antibiotic alone, compound alone, or the combination of antibiotic and compound were incubated in a shaking incubator at 250 rpm and at 37°C. At designated time points, 100 µL aliquots were taken from the culture tubes, serially diluted in PBS, and plated on LB agar plates. The bacterial colonies were then counted after incubation of the plates for 18 h at 37°C.

P. aeruginosa 259-96916 = assay: Time-kill kinetics assay
A. baumannii = assay: Checkerboard assay (antibiotic potentiation); type: cell-based, Acinetobacter baumannii
[1] = K. pneumoniae 113250 (colistin-resistant)
[2] = K. pneumoniae 116381, antibiotic + compound 1
[3] = E. coli 94393 (colistin-resistant)
[4] = E. coli 94474 (colistin-resistant)
[5] = 0.5 µg/mL zoliflodacin + 8 µg/mL (5 µM) compound 1
[6] = 8 µg/mL zoliflodacin + 8 µg/mL (5 µM) compound 1
[7] = monotherapy at 8 µg/mL, LB, 37°C, up to 24 h
[8] = zoliflodacin + compound 1, both 8 µg/mL, after 24 h
[9] = A. baumannii 110193, antibiotic + compound 1
[10] = A. baumannii ATCC 17978, 0% FBS, zoliflodacin + compound 1

C[C@@H]1CN2c3c(cc4c(N5C(=O)OC[C@@H]5C)noc4c3F)CC3(C(=O)NC(=O)NC3=O)[C@H]2[C@H](C)O1 [Zoliflodacin]
Interpretation (K. pneumoniae; K. pneumoniae 113250 (colistin-resistant), antibiotic + compound 1): Synergy (FIC indices of ≤0.5 is synergistic) | MICantibiotic + compound (K. pneumoniae; [1]): 4 µg/mL | MICantibiotic (K. pneumoniae; [1]): 128 µg/mL | Potentiation (K. pneumoniae; [1]): 32 fold | FIC index (K. pneumoniae; [2]): 0.063 | Interpretation (K. pneumoniae; [2]): Synergy (FIC indices of ≤0.5 is synergistic) | MICantibiotic + compound (K. pneumoniae; K. pneumoniae 116381): 0.25 µg/mL | MICantibiotic (K. pneumoniae; K. pneumoniae 116381): 256 µg/mL | Potentiation (K. pneumoniae; K. pneumoniae 116381): ≥512-fold | Interpretation (E. coli; [3]): Synergy (FIC indices of ≤0.5 is synergistic) | MICantibiotic + compound (E. coli; [3]): 2 µg/mL | MICantibiotic (E. coli; [3]): 64 µg/mL | Potentiation (E. coli; [3]): 32 fold | Interpretation (E. coli; [4]): Synergy (FIC indices of ≤0.5 is synergistic) | MICantibiotic + compound (E. coli; [4]): 4 µg/mL | MICantibiotic (E. coli; [4]): 64 µg/mL | Potentiation (E. coli; [4]): 16 fold | Interpretation (E. cloacae; antibiotic + compound 1): Synergy (FIC indices of ≤0.5 is synergistic) | MICantibiotic + compound (E. cloacae; antibiotic MIC with 8 µg/mL (5 µM) compound 1): 4 µg/mL | MICantibiotic (E. cloacae; antibiotic alone): 32 µg/mL | Potentiation (E. cloacae; of antibiotic by 8 µg/mL (5 µM) compound 1): 8 fold | time-kill outcome (A. baumannii AB027; [5]): appeared to eradicate the bacteria at 8 h; also recorded: slight regrowth after 24 h | time-kill outcome (A. baumannii AB027; [6]): appeared to eradicate the bacteria at 8 h | time-kill outcome (A. baumannii AB027; monotherapy at 0.5 µg/mL): growth curves similar to that of untreated bacteria | time-kill outcome (A. baumannii AB027; [7]): initially decreased bacterial loads, regrowth occurred after 8 h | decrease in bacterial load from the starting inoculum and from the most active monotherapy (A. baumannii AB027; [8]): ≥ 2 log10 | time-kill outcome (P. aeruginosa 259-96916; [5]): bacteriostatic effect | time-kill outcome (P. aeruginosa 259-96916; [6]): complete sterilization was achieved after 24 h | time-kill outcome (P. aeruginosa 259-96916; [7]): growth curve similar to that of untreated bacteria | decrease in bacterial load from the starting inoculum and from the most active monotherapy (P. aeruginosa 259-96916; [8]): ≥ 2 log10 | MICantibiotic + compound (A. baumannii): 0.031 µg/mL | Potentiation (A. baumannii): ≥128-fold | Interpretation (A. baumannii; A. baumannii 92247 (colistin-resistant), antibiotic + compound 1): Synergy (FIC indices of ≤0.5 is synergistic) | MICantibiotic + compound (A. baumannii; A. baumannii 92247 (colistin-resistant), antibiotic MIC with 4 µg/mL (2 µM) compound 1): 0.25 µg/mL | MICantibiotic (A. baumannii; A. baumannii 92247 (colistin-resistant), antibiotic alone): 4 µg/mL | Potentiation (A. baumannii; A. baumannii 92247 (colistin-resistant), of antibiotic by 4 µg/mL (2 µM) compound 1): ≥16-fold | FIC index (A. baumannii; [9]): 0.156 | Interpretation (A. baumannii; [9]): Synergy (FIC indices of ≤0.5 is synergistic) | MICantibiotic + compound (A. baumannii; A. baumannii 110193, antibiotic MIC with 4 µg/mL (2 µM) compound 1): 8 µg/mL | MICantibiotic (A. baumannii; A. baumannii 110193, antibiotic alone): 256 µg/mL | Potentiation (A. baumannii; A. baumannii 110193, of antibiotic by 4 µg/mL (2 µM) compound 1): 32 fold | Interpretation (A. baumannii; A. baumannii AB027, antibiotic + compound 1): Synergy (FIC indices of ≤0.5 is synergistic) | MICantibiotic + compound (A. baumannii; A. baumannii AB027, antibiotic MIC with 4 µg/mL (2 µM) compound 1): 0.25 µg/mL | MICantibiotic (A. baumannii; A. baumannii AB027, antibiotic alone): 16 µg/mL | Potentiation (A. baumannii; A. baumannii AB027, of antibiotic by 4 µg/mL (2 µM) compound 1): 64 fold | Interpretation (A. baumannii; A. baumannii AB031, antibiotic + compound 1): Synergy (FIC indices of ≤0.5 is synergistic) | MICantibiotic + compound (A. baumannii; A. baumannii AB031, antibiotic MIC with 4 µg/mL (2 µM) compound 1): 4 µg/mL | MICantibiotic (A. baumannii; A. baumannii AB031, antibiotic alone): 128 µg/mL | Potentiation (A. baumannii; A. baumannii AB031, of antibiotic by 4 µg/mL (2 µM) compound 1): 32 fold | Potentiation (A. baumannii; A. baumannii ATCC 17978, 0% FBS, of zoliflodacin by 4 µg/mL compound 1): ≥128-fold | FIC index (A. baumannii; [10]): 0.258 | Interpretation (A. baumannii; [10]): Synergy (FIC indices of ≤0.5 is synergistic) | MICantibiotic + compound (A. baumannii; A. baumannii ATCC 17978, 0% FBS, zoliflodacin MIC with 4 µg/mL compound 1): 0.031 µg/mL | MICantibiotic (A. baumannii; A. baumannii ATCC 17978, 0% FBS, zoliflodacin alone): 4 µg/mL | Potentiation (A. baumannii; A. baumannii ATCC 17978, 10% FBS, of zoliflodacin by 4 µg/mL compound 1): 32 fold | Interpretation (A. baumannii; A. baumannii ATCC 17978, 10% FBS, zoliflodacin + compound 1): Synergy (FIC indices of ≤0.5 is synergistic) | MICantibiotic + compound (A. baumannii; A. baumannii ATCC 17978, 10% FBS, zoliflodacin MIC with 4 µg/mL compound 1): 0.5 µg/mL | MICantibiotic (A. baumannii; A. baumannii ATCC 17978, 10% FBS, zoliflodacin alone): 16 µg/mL | Potentiation (A. baumannii; A. baumannii ATCC 17978, 25% FBS, of zoliflodacin by 4 µg/mL compound 1): 8 fold | Interpretation (A. baumannii; A. baumannii ATCC 17978, 25% FBS, zoliflodacin + compound 1): Synergy (FIC indices of ≤0.5 is synergistic) | MICantibiotic + compound (A. baumannii; A. baumannii ATCC 17978, 25% FBS, zoliflodacin MIC with 4 µg/mL compound 1): 2 µg/mL | MICantibiotic (A. baumannii; A. baumannii ATCC 17978, 25% FBS, zoliflodacin alone): 16 µg/mL | Potentiation (A. baumannii; A. baumannii ATCC 17978, 50% FBS, of zoliflodacin by 4 µg/mL compound 1): 2 fold | Interpretation (A. baumannii; A. baumannii ATCC 17978, 50% FBS, zoliflodacin + compound 1): Additive (0.5 < × ≤ 4 is additive) | MICantibiotic + compound (A. baumannii; A. baumannii ATCC 17978, 50% FBS, zoliflodacin MIC with 4 µg/mL compound 1): 32 µg/mL | MICantibiotic (A. baumannii; A. baumannii ATCC 17978, 50% FBS, zoliflodacin alone): 64 µg/mL | Potentiation (A. baumannii; A. baumannii ATCC 17978, [Mg2+] 25 mM, of zoliflodacin by 4 µg/mL compound 1): ≥64-fold
